Data: the CheMixHub viscosity set
± gives the uncertainty stated by the source.

Experiment: xn = mol fraction of the nth substance listed

O=S1(=O)CCCC1 + Cc1ccccc1C
viscosity [mPa·s], 101.3 kPa
Settings	x2 = 0.1118	x2 = 0.2206	x2 = 0.3267	x2 = 0.4301	x2 = 0.5311	x2 = 0.6293	x2 = 0.7254	x2 = 0.8191	x2 = 0.9105
303.15 K	6.89 ± 0.28	4.875 ± 0.21	3.582 ± 0.16	2.692 ± 0.12	2.066 ± 0.095	1.618 ± 0.076	1.243 ± 0.06	1.04 ± 0.051	0.8453 ± 0.043
323.15 K	4.358 ± 0.19	3.169 ± 0.14	2.397 ± 0.11	1.854 ± 0.086	1.456 ± 0.069	1.173 ± 0.057	0.9211 ± 0.046	0.8044 ± 0.041	0.6503 ± 0.034

Nc1ccccc1Cl + Cc1ccccc1Cl
viscosity [mPa·s], 101 kPa
Settings	x1 = 0.11	x1 = 0.2176	x1 = 0.3228	x1 = 0.4258	x1 = 0.5266	x1 = 0.6253	x1 = 0.7219	x1 = 0.8165	x1 = 0.9092
303.15 K	1.073 ± 0.027	1.284 ± 0.031	1.521 ± 0.036	1.782 ± 0.042	2.069 ± 0.048	2.379 ± 0.055	2.711 ± 0.062	3.065 ± 0.07	3.437 ± 0.078
308.15 K	0.9808 ± 0.025	1.175 ± 0.029	1.392 ± 0.034	1.63 ± 0.039	1.888 ± 0.044	2.164 ± 0.05	2.458 ± 0.057	2.765 ± 0.064	3.084 ± 0.071
313.15 K	0.8896 ± 0.023	1.07 ± 0.027	1.271 ± 0.031	1.49 ± 0.036	1.726 ± 0.041	1.976 ± 0.046	2.238 ± 0.052	2.507 ± 0.058	2.783 ± 0.064
318.15 K	0.7935 ± 0.021	0.9642 ± 0.024	1.153 ± 0.028	1.358 ± 0.033	1.578 ± 0.038	1.808 ± 0.043	2.045 ± 0.048	2.286 ± 0.053	2.526 ± 0.058

CCCCOCCOCCO + ClC(Cl)(Cl)Cl
298.15 K, 101.33 kPa
Settings	viscosity [mPa·s]
x1 = 0.02	0.948 ± 0.024
x1 = 0.038	0.989 ± 0.025
x1 = 0.0629	1.05 ± 0.026
x1 = 0.0892	1.14 ± 0.028
x1 = 0.1363	1.29 ± 0.032
x1 = 0.18	1.442 ± 0.035
x1 = 0.2249	1.63 ± 0.039
x1 = 0.2644	1.796 ± 0.043
x1 = 0.3052	1.974 ± 0.047
x1 = 0.4307	2.594 ± 0.06
x1 = 0.4809	2.841 ± 0.065
x1 = 0.5267	3.065 ± 0.07
x1 = 0.5721	3.292 ± 0.075
x1 = 0.6126	3.489 ± 0.079
x1 = 0.6679	3.769 ± 0.085
x1 = 0.7225	4.032 ± 0.091
x1 = 0.7669	4.227 ± 0.095
x1 = 0.8132	4.438 ± 0.099
x1 = 0.8674	4.688 ± 0.11
x1 = 0.9149	4.885 ± 0.11
x1 = 0.9436	5.01 ± 0.11
x1 = 0.9724	5.074 ± 0.11

Cc1ccccc1N + ClC(Cl)(Cl)Cl
viscosity [mPa·s], 100 kPa
Settings	x2 = 0.0901	x2 = 0.1916	x2 = 0.2917	x2 = 0.3903	x2 = 0.4988	x2 = 0.6089	x2 = 0.6981	x2 = 0.7941	x2 = 0.8847
298.15 K	3.473 ± 0.074	3.194 ± 0.068	2.917 ± 0.062	2.642 ± 0.056	2.337 ± 0.05	2.026 ± 0.043	1.772 ± 0.038	1.497 ± 0.032	1.235 ± 0.026
303.15 K	3.049 ± 0.065	2.812 ± 0.06	2.575 ± 0.055	2.34 ± 0.05	2.079 ± 0.044	1.812 ± 0.039	1.593 ± 0.034	1.356 ± 0.029	1.13 ± 0.024
308.15 K	2.65 ± 0.057	2.452 ± 0.053	2.254 ± 0.048	2.056 ± 0.044	1.836 ± 0.039	1.611 ± 0.034	1.426 ± 0.03	1.224 ± 0.026	1.032 ± 0.022
313.15 K	2.34 ± 0.05	2.172 ± 0.047	2.003 ± 0.043	1.834 ± 0.039	1.646 ± 0.035	1.452 ± 0.031	1.292 ± 0.027	1.118 ± 0.024	0.951 ± 0.02
318.15 K	2.033 ± 0.044	1.895 ± 0.041	1.755 ± 0.038	1.616 ± 0.035	1.459 ± 0.031	1.296 ± 0.028	1.162 ± 0.025	1.016 ± 0.022	0.874 ± 0.019

Nc1ccccc1Cl + ClC(Cl)(Cl)Cl
viscosity [mPa·s], 100 kPa
Settings	x2 = 0.1011	x2 = 0.1916	x2 = 0.2901	x2 = 0.3811	x2 = 0.4923	x2 = 0.5989	x2 = 0.6911	x2 = 0.7741	x2 = 0.8897
298.15 K	3.882 ± 0.082	3.589 ± 0.076	3.268 ± 0.069	2.97 ± 0.063	2.604 ± 0.055	2.25 ± 0.047	1.942 ± 0.041	1.664 ± 0.035	1.273 ± 0.027
303.15 K	3.532 ± 0.075	3.269 ± 0.069	2.981 ± 0.063	2.713 ± 0.057	2.382 ± 0.05	2.063 ± 0.044	1.785 ± 0.038	1.533 ± 0.032	1.179 ± 0.025
308.15 K	3.158 ± 0.067	2.927 ± 0.062	2.675 ± 0.057	2.439 ± 0.052	2.149 ± 0.046	1.868 ± 0.04	1.622 ± 0.034	1.4 ± 0.03	1.086 ± 0.023
313.15 K	2.837 ± 0.06	2.634 ± 0.056	2.411 ± 0.051	2.203 ± 0.047	1.947 ± 0.041	1.699 ± 0.036	1.482 ± 0.031	1.284 ± 0.027	1.005 ± 0.021
318.15 K	2.566 ± 0.054	2.387 ± 0.051	2.189 ± 0.046	2.004 ± 0.042	1.776 ± 0.038	1.554 ± 0.033	1.361 ± 0.029	1.185 ± 0.025	0.934 ± 0.02

CCCCOCCOCCO + ClC(Cl)=C(Cl)Cl
298.15 K, 101.33 kPa
Settings	viscosity [mPa·s]
x1 = 0.0092	0.859 ± 0.009
x1 = 0.0253	0.883 ± 0.009
x1 = 0.0385	0.91 ± 0.009
x1 = 0.0481	0.929 ± 0.009
x1 = 0.0583	0.95 ± 0.009
x1 = 0.0816	1.001 ± 0.01
x1 = 0.0932	1.03 ± 0.01
x1 = 0.1188	1.09 ± 0.011
x1 = 0.1559	1.186 ± 0.012
x1 = 0.1903	1.289 ± 0.013
x1 = 0.2322	1.413 ± 0.014
x1 = 0.2748	1.557 ± 0.015
x1 = 0.3127	1.691 ± 0.017
x1 = 0.3556	1.851 ± 0.018
x1 = 0.3911	2 ± 0.02
x1 = 0.4295	2.16 ± 0.021
x1 = 0.4585	2.288 ± 0.023
x1 = 0.4917	2.445 ± 0.024
x1 = 0.531	2.635 ± 0.026
x1 = 0.575	2.845 ± 0.029
x1 = 0.6181	3.066 ± 0.031
x1 = 0.666	3.31 ± 0.034
x1 = 0.7112	3.548 ± 0.037
x1 = 0.7734	3.894 ± 0.041
x1 = 0.8415	4.283 ± 0.045
x1 = 0.8983	4.615 ± 0.049
x1 = 0.929	4.805 ± 0.052
x1 = 0.9482	4.918 ± 0.053
x1 = 0.9696	5.061 ± 0.055
x2 = 0.0169	5.131 ± 0.055

CCCCOCCOCCO + ClC(Cl)Cl
298.15 K, 101.33 kPa
Settings	viscosity [mPa·s]
x1 = 0.0036	0.538 ± 0.015
x1 = 0.013	0.559 ± 0.015
x1 = 0.0198	0.572 ± 0.016
x1 = 0.0347	0.607 ± 0.017
x1 = 0.0576	0.674 ± 0.018
x1 = 0.0854	0.755 ± 0.02
x1 = 0.1232	0.882 ± 0.023
x1 = 0.1802	1.118 ± 0.028
x1 = 0.2156	1.281 ± 0.031
x1 = 0.2883	1.65 ± 0.039
x1 = 0.3513	2.01 ± 0.047
x1 = 0.427	2.46 ± 0.057
x1 = 0.486	2.828 ± 0.065
x1 = 0.539	3.148 ± 0.072
x1 = 0.6168	3.591 ± 0.081
x1 = 0.6945	4.021 ± 0.091
x1 = 0.7358	4.19 ± 0.094
x1 = 0.7844	4.415 ± 0.099
x1 = 0.8159	4.545 ± 0.1
x1 = 0.859	4.758 ± 0.11
x1 = 0.9079	4.913 ± 0.11
x1 = 0.94	5.021 ± 0.11
x1 = 0.9514	5.04 ± 0.11
x1 = 0.9582	5.061 ± 0.11
x1 = 0.9656	5.083 ± 0.11
x2 = 0.0054	5.185 ± 0.11

Cc1cccc(C)c1 + ClC(Cl)Cl
298.15 K, 101 kPa
Settings	viscosity [mPa·s]
x2 = 0.2254	0.5977 ± 0.0075
x2 = 0.4357	0.6026 ± 0.0076
x2 = 0.4615	0.6004 ± 0.0076
x2 = 0.5258	0.5981 ± 0.0075
x2 = 0.5786	0.5938 ± 0.0075
x2 = 0.6284	0.593 ± 0.0075
x2 = 0.6945	0.5876 ± 0.0074
x2 = 0.7272	0.5844 ± 0.0074
